# pIC50: −log10 of the molar value.
# How the values were obtained:
# [1] = target: β-hematin formation (no protein target); test: Inhibition of beta-hematin formation as molar equivalent relative to hemin causing blockade in BHIA
# Plasmodium falciparum [2] = test: Antimalarial activity against chloroquine-sensitive Plasmodium falciparum 3D7; assay type: functional, organism-based
# Plasmodium yoelii = test: In vivo antimalarial activity against Plasmodium yoelii NS peroral dosage; assay type: functional; conditions: po
# Plasmodium falciparum [3] = test: Antimalarial activity against chloroquine-resistant Plasmodium falciparum TM6; assay type: functional, organism-based
# Plasmodium falciparum [4] = test: Antimalarial activity against chloroquine-sensitive Plasmodium falciparum HB3; assay type: functional, organism-based
# Cytochrome P450 3A4 [5] = target: T1, Cytochrome P450 3A4 (Homo sapiens, UniProt P08684); test: Inhibition of human CYP3A4 using PPR substrate; assay type: ADME; conditions: read-out: IC50
# Plasmodium falciparum [6] = test: Antimalarial activity against chloroquine-resistant Plasmodium falciparum V1/S; assay type: functional, organism-based; conditions: V1S
# [7] = Toxicity in po dosed mouse assessed as drug level causing no observed adverse effects administered as once daily for 4 days; assay type: organism-based; conditions: in vivo, read-out: Activity
# Cytochrome P450 3A4 [8] = target: T1, Cytochrome P450 3A4; test: Inhibition of human CYP3A4 using DEF substrate; assay type: ADME
# Mus musculus [9] = test: Toxicity in po dosed mouse assessed as induction of hematological toxicity at drug dose above no observed adverse effects level; assay type: organism-based; conditions: in vivo
# [10] = Toxicity in po dosed mouse assessed as drug level causing no observed adverse effects administered as single dose; assay type: organism-based; conditions: in vivo, read-out: Activity
# [11] = (§1) Partition coefficient, log P of the compound; assay type: physicochemical; conditions: octanol/water
# Plasmodium falciparum [12] = test: Antimalarial activity against chloroquine-resistant Plasmodium falciparum J164; assay type: functional, organism-based
# Mus musculus [13] = test: Toxicity in po dosed mouse assessed as maximal nonlethal dose administered as single dose; assay type: organism-based; conditions: in vivo
# Mus musculus [14] = test: Toxicity in po dosed mouse assessed as induction of hepatotoxicity at drug dose above no observed adverse effects level; assay type: organism-based; conditions: in vivo
# [15] = Distribution coefficient, log D at pH 7.4; conditions: octanol/water
# Heme [16] = test: Binding affinity to heme assessed as binding constant for stepwise binding of 2 molecules of heme to 1 equivalent of drug in presence of 40% DMSO by UV-visible spectroscopy
# Heme [17] = test: Binding affinity to heme assessed as binding constant for stepwise binding of 2 equivalent of drug to 1 molecule of heme in presence of 40% DMSO by UV-visible spectroscopy
# [18] = Toxicity against Wistar rat hepatocytes after 6 hrs by trypan blue exclusion method; assay type: cell-based, Hepatocyte; conditions: read-out: TC50
# Plasmodium falciparum [19] = test: Antimalarial activity against […] Plasmodium falciparum PH3; assay type: functional, organism-based
# Plasmodium falciparum [20] = test: Antimalarial activity against […] Plasmodium falciparum Dd2; assay type: functional, organism-based
# Plasmodium falciparum [21] = test: Antimalarial activity against chloroquine-resistant Plasmodium falciparum TM4; assay type: functional, organism-based
# Plasmodium falciparum [22] = test: Antimalarial activity against chloroquine-resistant Plasmodium falciparum K1
# Lung = test: Biodistribution in Wistar rat lung assessed as [3H]labeled drug level at 54 umol/kg, iv after 24 hrs; assay type: ADME, organism-based; conditions: in vivo
# Plasmodium berghei = test: Antimalarial activity as reduced parasitaemia against Plasmodium berghei ANKA infected CD1 mice (Mus musculus) perorally dosed daily over 4 days; assay type: functional; conditions: po, 96 h
# [23] = as §1; assay type: physicochemical; conditions: octanol/water; remark: listed apart in the source
# Liver [24] = test: Biodistribution in cannulated Wistar rat liver assessed as [3H]labeled drug level at 54 umol/kg, iv after 5 hrs; assay type: ADME, organism-based; conditions: in vivo
# [25] = Biodistribution in cannulated Wistar rat bile assessed as [3H]labeled drug level at 54 umol/kg, iv after 5 hrs; assay type: ADME, organism-based; conditions: in vivo
# Rattus norvegicus [26] = test: Drug elimination in Wistar rat assessed as [3H]labeled drug level at 54 umol/kg, iv after 24 hrs; assay type: ADME, organism-based; conditions: in vivo
# [27] = Drug metabolism in cannulated Wistar rat assessed as biliary excretion of [3H]labeled drug level at 54 umol/kg, iv after 5 hrs; assay type: ADME, organism-based, Bile; conditions: in vivo
# Liver [28] = test: Biodistribution in Wistar rat liver assessed as [3H]labeled drug level at 54 umol/kg, iv after 24 hrs; assay type: ADME, organism-based; conditions: in vivo
# Rattus norvegicus [29] = test: Metabolic stability in Wistar rat assessed as 2-Chloro-5-(7-chloro-quinolin-4-ylamino)-benzoic acid level at 54 umol/kg, iv administered as [3H]labeled drug after 5 hrs; assay type: ADME, organism-based; conditions: in vivo
# Kidney [30] = test: Biodistribution in Wistar rat kidney assessed as [3H]labeled drug level at 54 umol/kg, iv after 24 hrs; assay type: ADME, organism-based; conditions: in vivo
# Rattus norvegicus [31] = test: Metabolic stability in Wistar rat assessed as 2-[2-Chloro-5-(7-chloro-quinolin-4-ylamino)-benzylamino]-2-methyl-propionic acid level at 54 umol/kg, iv administered as [3H]labeled drug after 5 hrs; assay type: ADME, organism-based; conditions: in vivo
# Rattus norvegicus [32] = test: Metabolic stability in Wistar rat assessed as [3-(tert-Butylamino-methyl)-4-chloro-phenyl]-(7-chloro-1-oxy-quinolin-4-yl)-amine level at 54 umol/kg, iv administered as [3H]labeled drug after 5 hrs; assay type: ADME, organism-based; conditions: in vivo
# Kidney [33] = test: Biodistribution in cannulated Wistar rat kidney assessed as [3H]labeled drug level at 54 umol/kg, iv after 5 hrs; assay type: ADME, organism-based; conditions: in vivo
# [34] = Therapeutic index, ratio of IC50 for Wistar rat hepatocytes to IC50 for Plasmodium falciparum HB3; assay type: cell-based, Hepatocyte
# T1 sequence (P08684 whole entry): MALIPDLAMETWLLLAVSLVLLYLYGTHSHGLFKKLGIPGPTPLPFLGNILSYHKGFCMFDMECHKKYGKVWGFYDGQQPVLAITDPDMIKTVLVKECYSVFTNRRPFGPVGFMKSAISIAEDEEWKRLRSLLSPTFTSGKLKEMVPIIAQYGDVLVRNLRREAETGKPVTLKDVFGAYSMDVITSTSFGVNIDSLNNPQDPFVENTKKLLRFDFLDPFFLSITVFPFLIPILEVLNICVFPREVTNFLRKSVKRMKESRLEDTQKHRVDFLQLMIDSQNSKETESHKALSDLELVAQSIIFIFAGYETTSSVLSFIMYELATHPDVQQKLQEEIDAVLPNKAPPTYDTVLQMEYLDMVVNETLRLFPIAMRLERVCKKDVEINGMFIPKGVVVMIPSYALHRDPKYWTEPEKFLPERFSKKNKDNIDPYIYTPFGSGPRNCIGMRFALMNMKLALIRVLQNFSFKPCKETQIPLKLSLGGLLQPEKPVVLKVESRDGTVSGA
smiles,measurement,setting,value
Fc1ccc(Nc2ccnc3cc(Cl)ccc23)cc1Cn1ccnc1,IC50,[1],1.78 molar ratio
same,pIC50,Plasmodium falciparum [2],7.57
CCCN(CCC)Cc1cc(Nc2ccnc3cc(Cl)ccc23)ccc1Cl,pIC50,Plasmodium falciparum [2],6.56
CC(C)(C)NCc1ccc(Nc2ccnc3cc(Cl)ccc23)cc1O,pIC50,Plasmodium falciparum [2],8.22
CCN(CC)Cc1cc(Nc2ccnc3cc(Cl)ccc23)ccc1F,pIC50,Plasmodium falciparum [2],7.56
Fc1ccc(Nc2ccnc3cc(Cl)ccc23)cc1CN1CCCCC1,pIC50,Plasmodium falciparum [2],7.48
CCN(CC)Cc1cc(Nc2ccnc3cc(Cl)ccc23)ccc1O.Cl,ED50,Plasmodium yoelii,7.4 mg/kg
same,pIC50,Plasmodium falciparum [3],8.14
same,pIC50,Plasmodium falciparum [4],8.26
same,pIC50,Cytochrome P450 3A4 [5],< 4.00
same,pIC50,Plasmodium falciparum [6],8.05
same,NOAEL at 96 h,[7],100 mg/kg
same,pIC50,Cytochrome P450 3A4 [8],4.55
same,Activity,Mus musculus [9],Toxic
same,NOAEL,[10],100 mg/kg
same,logP,[11],4.37
same,pIC50,Plasmodium falciparum [12],7.73
same,Activity,Mus musculus [13],> 500 mg/kg
same,Activity,Mus musculus [14],Toxic
same,logD,[15],3.08
same,log Ks,Heme [16],6.2
same,log Ks,Heme [17],4.4
same,CC50 at 6 h,[18],78000 nM
Fc1ccc(Nc2ccnc3cc(Cl)ccc23)cc1CN1CCOCC1,pIC50,Plasmodium falciparum [2],6.26
CCN(CC)CCCC(C)Nc1ccnc2cc(Cl)ccc12 (stereo unspecified) [CHLOROQUINE],NOAEL at 96 h,[7],300 mg/kg
same,Activity,Mus musculus [9],Toxic
same,NOAEL,[10],300 mg/kg
same,Activity,Mus musculus [14],Toxic
Clc1ccc2c(Nc3ccc(Cl)c(CN4CCCC4)c3)ccnc2c1,pIC50,Plasmodium falciparum [3],8.38
same,pIC50,Plasmodium falciparum [4],7.82
Fc1ccc(Nc2ccnc3cc(Cl)ccc23)cc1CN1CCCC1,pIC50,Plasmodium falciparum [3],7.22
same,pIC50,Plasmodium falciparum [4],7.20
same,pIC50,Plasmodium falciparum [6],7.28
same,pIC50,Plasmodium falciparum [19],7.60
same,pIC50,Plasmodium falciparum [12],7.46
same,pIC50,Plasmodium falciparum [20],7.43
same,pIC50,Plasmodium falciparum [21],7.33
same,pIC50,Plasmodium falciparum [2],7.53
same,pIC50,Plasmodium falciparum [22],7.34
Clc1ccc2c(Nc3cccc(Cn4ccnc4)c3)ccnc2c1,IC50,[1],2.65 molar ratio
CC(C)(C)NCc1cc(Nc2ccnc3cc(Cl)ccc23)ccc1Cl,Drug uptake,Lung,0.25 %ID
same,ED50,Plasmodium berghei,13.4 mg/kg
same,ED90,Plasmodium berghei,27.3 mg/kg
same,pIC50,Plasmodium falciparum [3],8.35
same,logP,[23],5.59
same,pIC50,Plasmodium falciparum [4],8.09
same,Drug uptake,Liver [24],12.41%
same,Activity,[25],14.9%
same,Activity,Rattus norvegicus [26],61%
same,Activity,[27],14.88%
same,Drug uptake,Liver [28],1.87 %ID
same,Activity,Rattus norvegicus [29],11.39%
same,Drug uptake,Kidney [30],0.31 %ID
same,Activity,Rattus norvegicus [31],60.76%
same,Activity,Rattus norvegicus [32],4.52%
same,IC50,[1],1.66 molar ratio
same,logD,[15],3
same,pIC50,Plasmodium falciparum [2],8.11
same,Drug uptake,Kidney [33],5.43 %ID
same,selectivity ratio,[34],11900
same,CC50 at 6 h,[18],120000 nM
CCCCN(CCCC)Cc1cc(Nc2ccnc3cc(Cl)ccc23)ccc1F,pIC50,Plasmodium falciparum [2],7.02
CCCCN(CCCC)Cc1cc(Nc2ccnc3cc(Cl)ccc23)ccc1Cl,pIC50,Plasmodium falciparum [3],7.02
same,pIC50,Plasmodium falciparum [4],6.84
same,pIC50,Plasmodium falciparum [2],6.46
CC(C)(C)NCc1cccc(Nc2ccnc3cc(Cl)ccc23)c1,IC50,[1],1.65 molar ratio
